# Reference: patent publication US20020155192A1, “Yeast transport isoforms” (priority 2000, published 2002)
# Read-outs that look alike come from different tables or passages of the source.
# How the values were obtained:
# [1] = target: T1, Odc1p (Saccharomyces cerevisiae, UniProt Q03028); experiment: Effect of inhibitors and external compounds on the [14C]oxoglutarate/oxoglutarate exchange by proteoliposomes reconstituted with Odc1p; type: biochemical; conditions: for Inhibition (%) of [14C]oxoglutarate/oxoglutarate exchange: 20 mM internal oxoglutarate, 0.4 mM [14C]oxoglutarate, 45 seconds, inhibitors 4 mM, except mercurials 10 μM, carboxyatractyloside 0.1 mM, N-ethylmaleimide and α-cyanocinnamate 2 mM; for inhibition of [14C]oxoglutarate/oxoglutarate exchange (in words): Table III
# T1 construct: made in house; host or cells: S. cerevisiae odc1Δodc2Δ (YPH499 background) carrying pYES2-based pODC1; purified from mitochondria on Ni-NTA agarose
# T1 sequence (Q03028 1-310): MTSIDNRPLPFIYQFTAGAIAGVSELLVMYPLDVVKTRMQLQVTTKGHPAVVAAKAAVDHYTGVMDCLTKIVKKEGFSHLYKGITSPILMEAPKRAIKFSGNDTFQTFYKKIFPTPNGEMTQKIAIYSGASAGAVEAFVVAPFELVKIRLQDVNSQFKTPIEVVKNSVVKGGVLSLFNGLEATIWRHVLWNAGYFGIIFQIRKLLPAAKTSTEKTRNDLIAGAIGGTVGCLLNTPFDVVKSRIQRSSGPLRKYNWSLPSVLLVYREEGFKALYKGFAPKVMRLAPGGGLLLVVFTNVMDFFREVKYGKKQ
# Experimental: FIG. 5. Effect of dicarboxylates and 2-oxodicarboxylates with different carbon chain length on the rate of [^14C]oxoglutarate uptake into proteoliposomes reconstituted with recombinant Odc1p. Proteoliposomes were preloaded with 20 mM oxoglutarate and reconstituted with recombinant Odc1p. Transport was initiated by the addition of 0.4 mM [^14C]oxoglutarate and terminated after 45 seconds. Oxalate, malonate, succinate, glutarate, adipate, pimelate, suberate (▪) and the corresponding 2-oxoacids (●) were added simultaneously with [1^4C]oxoglutarate at 4.0 mM concentration.
# (§1) Reconstitution of the ODC proteins into liposomes—Purified ODC proteins were reconstituted by cyclic removal of the detergent with a hydrophobic column (13). The composition of the initial mixture used for reconstitution was: 200 μl of purified isoform (0.3-0.4 μg of protein), 70 μl of 10% Triton X-114, 100 μl of 10% phospholipids in the form of sonicated liposomes, 20 mM oxoglutarate (except where otherwise indicated), 10 mM Pipes (pH 7.0), 0.7 mg of cardiolipin (Sigma) and water to a final volume of 700 μl. These components were mixed thoroughly, and the mixture was recycled 13 times through an Amberlite column (Supelco) (3.0 cm×0.5 cm) preequilibrated with a buffer containing 10 mM Pipes (pH 7.0) and with the substrate at the same concentration as in the starting mixture. All operations were performed at 4° C., except the passages through Amberlite, which were carried out at room temperature.
# (§2) External substrate was removed from proteoliposomes on a Sephadex G-75 column preequilibrated with buffer F (50 mM NaCl and 10 mM PIPES, pH 7.0). Transport at 25° C. was started by adding [^14C]oxoglutarate (unless otherwise indicated) to the proteoliposomes, and terminated by addition of 30 mM pyridoxal 5′-phosphate and 10 mM bathophenanthroline (the “inhibitor-stop” method (13)). In controls, inhibitors were added with the labelled substrate. The external radioactivity was removed on Sephadex G-75 and the internal radioactivity was measured. […] The initial rate of transport was calculated in mmol/min per g protein from the time course of isotope equilibration (13). Various other transport activities were also assayed by the inhibitor-stop method. For efflux measurements, the internal substrate pool of the proteoliposomes was made radioactive by carrier-mediated exchange equilibration (13) with 0.1 mM [^14C]oxoglutarate added at high specific radioactivity. After 60 min, the residual external radioactivity was removed by passing the proteoliposomes again through a column of Sephadex G-75. Efflux was started by adding unlabelled external substrate or buffer F alone and terminated by adding the inhibitors indicated above.
# (§3) In addition, the ability of non-radioactive potential substrates to inhibit the oxoglutarate/oxoglutarate exchange was examined.
# Proteoliposomes were preloaded internally with 20 mM oxoglutarate and transport was initiated by the addition of 0.4 mM [^14C]oxoglutarate.
# [2] = target: T2, Odc2p (Saccharomyces cerevisiae, UniProt Q99297); experiment: Effect of inhibitors and external compounds on the [14C]oxoglutarate/oxoglutarate exchange by proteoliposomes reconstituted with Odc2p; type: biochemical; conditions: for Inhibition (%) of [14C]oxoglutarate/oxoglutarate exchange: 20 mM internal oxoglutarate, 0.4 mM [14C]oxoglutarate, 45 seconds, inhibitors 4 mM, except mercurials 10 μM, carboxyatractyloside 0.1 mM, N-ethylmaleimide and α-cyanocinnamate 2 mM; for inhibition of [14C]oxoglutarate/oxoglutarate exchange (in words): Table III
# T2 construct: made in house; host or cells: S. cerevisiae odc1Δodc2Δ (YPH499 background) carrying pYES2-based pODC2; purified from mitochondria on Ni-NTA agarose
# T2 sequence (Q99297 1-307): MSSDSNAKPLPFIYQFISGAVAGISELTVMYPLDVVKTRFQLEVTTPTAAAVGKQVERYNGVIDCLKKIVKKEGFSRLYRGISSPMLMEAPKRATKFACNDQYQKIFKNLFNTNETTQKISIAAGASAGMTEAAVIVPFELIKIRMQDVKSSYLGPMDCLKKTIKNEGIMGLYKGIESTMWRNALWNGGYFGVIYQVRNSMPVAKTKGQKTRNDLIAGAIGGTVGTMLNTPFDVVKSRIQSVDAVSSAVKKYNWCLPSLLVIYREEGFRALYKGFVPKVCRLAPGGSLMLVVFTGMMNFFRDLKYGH
# Experimental: as §1, §2, §3
# Proteoliposomes were preloaded internally with 20 mM oxoglutarate and transport was initiated by the addition of 0.4 mM [^14C]oxoglutarate. The incubation time was 45 seconds. Thiol reagents and α-cyanocinnamate were added 2 min before the labelled substrate; the other inhibitors and external substrates were added together with [^14C]oxoglutarate. The final concentration of the inhibitors was 4 mM, except for mercurials (10 μM), carboxyatractyloside (0.1 mM), N-ethylmaleimide and α-cyanocinnamate (2 mM).
# [3] = Odc1p, added with 0.4 mM [14C]oxoglutarate, 4.0 mM in FIG. 5, partly data not shown
"effect of non-radioactive potential substrates on the rate of oxoglutarate uptake (in words) [1, 3]","effect of non-radioactive potential substrates on the rate of oxoglutarate uptake (in words) ([2]; Odc2p, data not shown)",Compound,Inhibition (%) of [14C]oxoglutarate/oxoglutarate exchange ([1]; Odc1p),inhibition of [14C]oxoglutarate/oxoglutarate exchange (in words) ([1]; Odc1p),Inhibition (%) of [14C]oxoglutarate/oxoglutarate exchange ([2]; Odc2p),inhibition of [14C]oxoglutarate/oxoglutarate exchange (in words) ([2]; Odc2p),also measured
–,–,O=S(=O)(O)c1cc[c]([Hg][Cl])cc1 [p-Chloromercuriphenylsulfonate],98%,inhibited strongly,100%,inhibited strongly,–
–,–,CCCCC(C(=O)O)C(=O)O [Butylmalonate],118%,rather poorly,25%,rather poorly,–
–,–,N#C/C(=C\c1ccccc1)C(=O)O [α-Cyanocinnamate],86%,inhibited strongly,80%,inhibited strongly,–
no effect,no effect,N[C@@H](CO)C(=O)O [serine],–,–,–,–,–
–,–,O=C(O)CC(C(=O)O)c1ccccc1 (stereo not shown) [Phenylsuccinate],23%,rather poorly,22%,rather poorly,–
no effect,no effect,N[C@@H](Cc1c[nH]cn1)C(=O)O [histidine],–,–,–,–,–
–,–,CC(=O)CCCC(=O)O [5-oxohexanoate],–,–,–,–,"effect of oxomonocarboxylates on the rate of uptake of 0.4 mM oxoglutarate (in words) ([1]; Odc1p, 8 mM, 20 times greater than the substrate, data not shown): did not influence; effect of oxomonocarboxylates on the rate of uptake of 0.4 mM oxoglutarate (in words) ([2]; Odc2p, 8 mM, 20 times greater than the substrate, data not shown): did not influence"
–,–,N=C(N)NCCC[C@H](N)C(=O)O [arginine],–,–,–,–,effect of non-radioactive potential substrates on the rate of oxoglutarate uptake (in words) [1]: no effect; effect of non-radioactive potential substrates on the rate of oxoglutarate uptake (in words) [2]: no effect
–,–,hydroxyglutarate,–,–,–,–,effect of non-radioactive potential substrates on the rate of oxoglutarate uptake (in words) [1]: slightly less effective than glutarate; effect of non-radioactive potential substrates on the rate of oxoglutarate uptake (in words) [2]: slightly less effective than glutarate
no effect,no effect,NCCCC[C@H](N)C(=O)O [lysine],–,–,–,–,–
no effect,no effect,CC(C)[C@H](N)C(=O)O [valine],–,–,–,–,–
no effect,no effect,C[C@H](N)C(=O)O [alanine],–,–,–,–,–
no effect,no effect,NC(=O)C[C@H](N)C(=O)O [asparagine],–,–,–,–,–
no affect,no affect,NC(C(=O)O)C(O)C(=O)O (racemic) [DL-Threo-hydroxyaspartate],–,–,–,–,–
–,–,CCN1C(=O)C=CC1=O [N-Ethylmaleimide],65%,inhibited considerably,43%,inhibited considerably,–
–,–,C=C1[C@@H]2CC[C@H]3[C@]4(C)C[C@H](O[C@@H]5O[C@H](CO)[C@@H](OS(=O)(=O)O)[C@H](OS(=O)(=O)O)[C@H]5OC(=O)CC(C)C)CC(C(=O)O)(C(=O)O)[C@H]4CC[C@]3(C2)[C@H]1O [Carboxyatractyloside],7%,little or no effect,10%,little or no effect,–
–,–,COC(CNC(=O)c1ccccc1OCC(=O)O)[CH2][Hg][OH] (stereo not shown) [Mersalyl],–,inhibited strongly,100%,inhibited strongly,–
–,–,"O=C(O)c1cccc(C(=O)O)c1C(=O)O [1,2,3-Benzenetricarboxylate]",41%,rather mild inhibitory effect,37%,rather mild inhibitory effect,–
–,–,"[Cl][Hg][Cl] [HgCl2, mercuric chloride]",100%,inhibited strongly,98%,inhibited strongly,–
no effect,no effect,NCC(=O)O [glycine],–,–,–,–,–
no effect,no effect,C[C@@H](O)[C@H](N)C(=O)O [threonine],–,–,–,–,–
–,–,O=C(O)CC(O)C(=O)O (stereo not shown) [malate],–,–,–,–,"increase of the extent of inhibition of oxoglutarate uptake with respect to the corresponding dicarboxylate ([1]; Odc1p, C4 hydroxydicarboxylate versus C4 dicarboxylate, not shown): about 10 fold; increase of the extent of inhibition of oxoglutarate uptake with respect to the corresponding dicarboxylate ([2]; Odc2p, C4 hydroxydicarboxylate versus C4 dicarboxylate, not shown): about 10 fold"
completely ineffective,completely ineffective,O=C(O)C(O)C(=O)O [tartronate],–,–,–,–,–

Compound,"effect of non-radioactive potential substrates on the rate of oxoglutarate uptake (in words) [1, 3]","effect of non-radioactive potential substrates on the rate of oxoglutarate uptake (in words) ([2]; Odc2p, data not shown)",Inhibition (%) of [14C]oxoglutarate/oxoglutarate exchange ([1]; Odc1p),inhibition of [14C]oxoglutarate/oxoglutarate exchange (in words) ([1]; Odc1p),Inhibition (%) of [14C]oxoglutarate/oxoglutarate exchange ([2]; Odc2p),inhibition of [14C]oxoglutarate/oxoglutarate exchange (in words) ([2]; Odc2p),also measured
O=C(O)[C@@H](O)[C@H](O)C(=O)O [D-tartrate],more efficiently than succinate,more efficiently than succinate,–,–,–,–,–
O=C(O)[C@H](O)[C@@H](O)C(=O)O [L-tartrate],more efficiently than succinate,more efficiently than succinate,–,–,–,–,–
